Reference: US20080020014A1, “Implantable devices containing nuclear receptor ligands for the treatment of vascular and related disorders” (priority 2006, published 2008)

Tests used:
[1] = system: PPARs; conditions: cited from earlier work
[2] = system: retinoic acid receptors (RARs); conditions: cited from earlier work
[3] = in blood; may not happen in tissue; listed as Tazarotene; cited from earlier work
[4] = system: collagenase gene expression at AP-1 binding sites; conditions: cited from earlier work
[5] = system: rat carotid arteries; conditions: balloon-denuded rat carotid arteries; cited from earlier work
[6] = system: rat carotid arteries; conditions: after balloon injury to rat carotid arteries; cited from earlier work
[7] = system: vascular smooth muscle cell; conditions: cited from earlier work
[8] = system: atherosclerosis; conditions: through liver X receptors (LXR); cited from earlier work
[9] = system: rabbit femoral arteries; conditions: 28 days after angioplasty; cited from earlier work
[10] = Drug-release rate of Example 3 stents in phosphate-buffered saline with 1 mass % sodium dodecyl sulfate, pH 7.4, 37° C., HPLC; format: physicochemical
Description: A drug-polymer layer comprising 17-β estradiol was applied onto a stent in the following manner. A first composition was prepared by mixing the following components: • (a) about 2.0 mass % of EVAL; and • (b) the balance, a mixture of solvents, DMAC and ethanol, in a ratio of DMAC to ethanol of about 70:30 by mass.
The first composition was applied onto the surface of a bare 13 mm TETRA stent (available from Abbott Vascular Corp.) by spraying and dried to form a primer layer. A spray coater having an EFD 7803 spray valve with 0.014 inch fan nozzle with a VALVEMATE 7040 control system (manufactured by EFD Inc. of East Providence, R.I) was used. The fan nozzel was maintained at about 60° C. with a feed pressure of about 0.2 atm (about 3 psi) and an atomization pressure of about 1.35 atm (about 20 psi). An average of about 19 micrograms (μg) per coating pass was applied and an average total of about 62 μg of the wet coating was applied.
The primer layer was baked at about 140° C. for about one hour, yielding a layer with an average total amount of solids of about 61 μg, corresponding to an average thickness on the stent of 0.65 μm. “Solids” means the amount of dry residue deposited on the stent after all volatile organic compounds (e.g., the solvent) have been removed.
A second composition was prepared by mixing the following components: • (a) about 2.0 mass % of EVAL; • (b) about 0.7 mass % 17-β estradiol; and • (c) the balance, a mixture of solvents, DMAC and ethanol, in a ratio of DMAC to ethanol of about 70:30 by mass.
The second composition was applied onto the dried primer layer to form a drug-polymer polymer layer using the same spraying technique and equipment used for the primer layer. […] of the wet coating was applied, followed by drying at about 50° C. for about 2 hours. The total amount of solids of the drug-polymer layer was about 494 μg, corresponding to an average thickness on the stent of about 5.3 μm.
A third, topcoat composition was prepared by mixing the following components: • (a) about 1.2 g of a 10 mass % solution of KYNAR-FLEX 2800 in acetone; • (b) about 1.89 g of additional acetone; • (c) about 5.94 g of cyclohexanone; and • (d) about 2.97 g of AMS FLUX REMOVER.
The topcoat composition was applied by spraying using an EFD 7803 spray valve with 0.014 inch fan nozzle to form a topcoat layer, followed by drying. The nozzle temperature was at ambient temperature with a feed pressure of about 0.2 atm (3 psi) and an atomization pressure of about 1 atm (15 psi). The dryer temperature was at ambient temperature with a dryer air pressure of about 2.7 atm (40 psi). An average of about 5 μg per coating pass was applied and an average total of about 60 μg of wet coating was applied. The topcoat layer was baked at about 50° C. for two hours, yielding a total amount of solids of about 55 μg, corresponding to a thickness of about 0.38 μm.
Three stents coated according to this example were tested for their drug-release rate. The stents were immersed in individual, stirred vessels containing a phosphate-buffered saline solution that included about 1 mass % of sodium dodecyl sulfate. […] The amount of 17-β estradiol released was determined at measured intervals of time by HPLC. […] There was an initial small burst of 17-β estradiol during the first 20 hours, after which the release rate became approximately linear. Specifically, about 18% of 17-β estradiol was released after 10 hr, 25% after 20 hr, 30% after 30 hr, 35% after 40 hr, 40% after 50 hr, 43% after 60 hr, and 45% after 70 hr.

Compound | PPAR subtypes activated [1] | also measured
CCCCC/C=C\C/C=C\CCCCCCCC(=O)O [linoleic acid] | α, δ | –
CCC=CCC=CCC=CC=CC(O)CC=CCCCC(=O)O (stereo not shown) [8-HEPE, 8-hydroxyeicosapentaenoic acid] | α | –
CCCCCCCCCCCCCCC1(C(=O)O)CO1 (stereo not shown) [tetradecylglycidic acid] | α, δ | –
CCOC(=O)c1ccc(C#Cc2ccc3c(c2)C(C)(C)CCS3)nc1 [tazarotene] | – | Receptor specificity [2]: specific for retinoic acid receptors (RARs); Pharmacokinetics: de-esterification / metabolism to tazarotenic acid [3]: rapidly metabolized to tazarotenic acid
Cc1cccc(Nc2cc(Cl)nc(SCC(=O)O)n2)c1C [WY-14643] | α, δ, γ | –
CC1=C(/C=C/C(C)=C/C=C/C(C)=C/C(=O)O)C(C)(C)CCC1 [all-trans retinoic acid] | – | collagenase gene expression at AP-1 binding sites [4]: inhibited; intimal thickening [5]: suppressed; vessel remodeling [5]: increased; favorable geometric remodeling [6]: promoted; neointimal formation [6]: reduced; vascular smooth muscle cell proliferation [7]: inhibited
CC(C)(Sc1ccc(CCN(CCCCC2CCCCC2)C(=O)NC2CCCCC2)cc1)C(=O)O [GW-7647] | α | atherosclerosis and formation of microphage-forming cells [8]: inhibited
CCCCC/C=C\C/C=C\C/C=C\C/C=C\CCCC(=O)O [arachidonic acid] | α, δ, γ | –
CCCCC[C@H](O)/C=C/[C@@H]1[C@H]2C/C(=C/CCCC(=O)O)O[C@H]2C[C@H]1O [prostacyclin (PGI2), prostacyclin] | α, δ, γ | –
CCC/C=C/C/C=C/C=C/C=N/NN=O [Triacsin C] | α | –
CCCCC/C=C\C[C@H](O)/C=C/C=C\C/C=C\CCCC(=O)O [12-HETE] | α | –
CC/C=C\C/C=C\C/C=C\C/C=C\C/C=C\C/C=C\CCC(=O)O [docahexanoic acid] | α, δ, γ | –
CCCCCC#CCC#CCC#CCC#CCCCC(=O)O [ETYA, eicosatetraynoic acid] | α | –
CCCCC[C@H](O)/C=C/C=C\C/C=C\C/C=C\CCCC(=O)O [15-HETE] | γ | –
CCCCC/C=C\C/C=C\C=C\[C@H](O)C/C=C\CCCC(=O)O [8-(R) HETE, 8-(R)-hydroxyeicosatetaenoic acid] | α, γ | –
CCCCC[C@H](O)/C=C/C=C\CCCCCCCC(=O)O (racemic) [13-(R/S) HODE] | γ | –

Compound | PPAR subtypes activated [1] | also measured
CC1=C(/C=C/C(C)=C/C=C/C(C)=C\C(=O)O)C(C)(C)CCC1 [13-cis retinoic acid] | – | intimal thickening [5]: suppressed; vessel remodeling [5]: increased
9-(R/S) hydroxyoctadecadienoic acid [9-(R/S) HODE] | γ | –
CCCCCCCCCCCCCCSCC(=O)O [tetradecythioacetate] | α | –
CCCCC/C=C\C[C@@H](O)/C=C/C=C/C=C\[C@@H](O)CCCC(=O)O [LTB4] | α | –
CCCCCC(=O)/C=C/C=C\CCCCCCCC(=O)O [13-oxo ODE] | γ | –
CCCCCC=CC=CC(=O)CCCCCCCC(=O)O [9-oxo ODE, 9-oxo octadecadienoic acid] | γ | –
CCCCC[C@@H](/C=C/C=C\CCCCCCCC(=O)O)OO [13-(S) HpODE, 13-(S) hydroperoxyoctadecadienoic acid] | γ | –
CCCCCCCCCCCCCCC(Br)C(=O)O (stereo not shown) [2-bromopalmitate] | α, δ | –
CCCCC[C@H](O)/C=C/[C@H]1C(=O)C=C[C@@H]1C/C=C\CCCC(=O)O [PGJ2, prostaglandin J2] | α, δ, γ | –
CCCCC/C=C/C=C1/C(=O)C=C[C@@H]1C/C=C\CCCC(=O)O [15d-PGJ2, 15-deoxy-Δ^12,14-PGJ2] | α, δ, γ | –
CCCCCCCCCSCC(=O)O [nonythioacetic acid] | α | –
CCCCC[C@H](O)/C=C/C1=C(C/C=C\CCCC(=O)O)C(=O)CC1 [PGB2] | α, δ, γ | –
clofibrates | α, δ, γ | –
CC1=C(/C=C/C(C)=C/C=C/C(C)=C/CO)C(C)(C)CCC1 [retinol] | – | internal and external elastic lamina [9]: larger
CCCCC/C=C\C/C=C\C=C\[C@@H](O)C/C=C\CCCC(=O)O [8-(S) HETE] | α, γ | –
C[C@]12CC[C@@H]3c4ccc(O)cc4CC[C@H]3[C@@H]1CC[C@@H]2O [17-β estradiol] | – | 17-β estradiol released ([10]; after 10 hr, EVAL drug-polymer layer, KYNAR-FLEX 2800 topcoat): about 18%; 17-β estradiol released ([10]; after 20 hr): ~25%; 17-β estradiol released ([10]; after 30 hr): ~30%; 17-β estradiol released ([10]; after 40 hr): ~35%; 17-β estradiol released ([10]; after 50 hr): ~40%; 17-β estradiol released ([10]; after 60 hr): ~43%; 17-β estradiol released ([10]; after 70 hr): ~45%
